Test results: article PMC12242667, “Attenuation of 6‑OHDA-Induced Neurotoxicity by 1,2,3-Triazole-Based Sulfonamides through SIRT1 Activity” (ACS Omega, 2025)
Where two headings read alike, the source gives them in different places.

Legend:
[1] = system: normal embryonic lung (MRC-5) cell line; assay: Cytotoxicity on MRC-5 cell line, MTT assay; format: cell-based; details: Homo sapiens, MRC5, MRC-5 cells, 48 h incubation
Procedure: Normal embryonic lung MRC-5 cells and neuroblastoma SH-SY5Y cells from the American Type Culture Collection (Manassas, VA, USA) were maintained in DMEM with 10% heat-inactivated FBS and 1% penicillin-streptomycin at 37 °C in humidified air containing 5% carbon dioxide.
Cytotoxicity of 1,2,3-triazole-based sulfonamides was evaluated by using a normal embryonic lung (MRC-5) cell line. The MRC-5 cells were cultured in 96-well microtiter plates (Corning Inc., NY, USA) at 5,000–20,000 cells/well and incubated for 24 h at 37 °C in humidified air containing 5% carbon dioxide. Subsequently, various concentrations of 1,2,3-triazole derivatives, doxorubicin (used as a positive control), and DMSO (used as a negative control) were added and incubated for an additional 48 h. MTT reagent (0.5 mg/mL in medium) was added for cell staining and incubated for 4 h. Then, the remaining formazan was dissolved in DMSO by sonication. The absorbance of the test wavelength of 550 nm and the reference wavelength of 650 nm was analyzed with a microplate reader (Molecular Devices, CA, USA). IC50 of each compound was determined as the concentration of the compound that inhibits cell growth by 50%.

[2] = system: 6-OHDA-induced SH-SY5Y neuronal cells; assay: Neuroprotection: cell viability of 6-OHDA-induced SH-SY5Y cells, MTT assay; format: cell-based, Human; details: then 50 μM 6-OHDA 24 h
Procedure: (§1) Prior to investigations, 1.0 × 10^5 SH-SY5Y neuronal cells/mL were seeded into 96-well plates for 24 h. To determine the optimal concentration of 6-OHDA for inducing neurotoxicity, cells were seeded into 96-well plates for 24 h and treated with various concentrations of 6-OHDA ranging from 25 to 125 μM for another 24 h. For the evaluation of the cytotoxicity of 1,2,3-triazole-based sulfonamide derivatives on SH-SY5Y neuronal cells, the cells were treated with various concentrations (0.1–10 μM) of 1,2,3-triazole-based sulfonamide derivatives for 24 h.^29 To assess the neuroprotective activity of 1,2,3-triazole-based sulfonamide derivatives, the cells were pretreated with various concentrations (0.1–10 μM) of 1,2,3-triazole-based sulfonamide derivatives for 3 h before being treated with 50 μM of 6-OHDA for another 24 h. Cell viability was assessed by incubating with 5 mg/mL of MTT reagent for 3 h at 37 °C, followed by absorbance measurement at 570 nm using a microplate reader (Thermo Fisher Scientific Inc., MA, USA). The viability of SH-SY5Y cells at each concentration was analyzed as a percentage relative to the control group.

[3] = system: 6-OHDA-induced SH-SY5Y neuronal cells; assay: Intracellular ROS production, H2DCFDA assay; format: cell-based; details: Homo sapiens, relative to control; for activity at 5 µM: 5 μM pretreatment 3 h, then 50 μM 6-OHDA 24 h
Procedure: ROS production in SH-SY5Y neuronal cells was investigated using H2DCFDA. 1.0 × 10^5 cells/mL of SH-SY5Y neuronal cells were seeded into 96-well plates for 24 h, and 5 μM of selected 1,2,3-triazole-based sulfonamide derivatives were pretreated for 3 h. Then, neurotoxicity of the cells were induced with 50 μM of 6-OHDA for another 24 h. The neuronal cells with 10 μM H2DCFDA were incubated for 30 min at 37 °C in the dark. The emission and excitation wavelengths of 528 nm and 485 nm, respectively, were measured by using a microplate reader. The measured ROS production was calculated as a percentage relative to the control group.

[4] = system: 6-OHDA-induced SH-SY5Y neuronal cells; assay: Cellular leakage of LDH enzyme; format: cell-based, Human; details: percentage of control; for LDH leakage (LDH activity): 5 μM pretreatment 3 h, then 50 μM 6-OHDA 24 h
Procedure: Leakage of LDH, an enzyme commonly used as an assessment factor to evaluate cellular damage, was measured to determine the protective ability of the compounds against 6-OHDA-induced neuronal damage. 1.0 × 10^5 cells/mL of SH-SY5Y neuronal cells were seeded into 6-well plates for 24 h. The cells were pretreated with 5 μM of 1,2,3-triazole-based sulfonamide derivatives for 3 h before being treated with 50 μM of 6-OHDA for 24 h. The cell culture medium of SH-SY5Y cells was collected, and LDH leakage was evaluated using the LDH assay kit. In the presence of LDH, lactate is converted into pyruvate, resulting in an elevated level of NADH production, which is determined via the change in absorbance at 450 nm. LDH activity was calculated according to the manufacturer’s instructions and shown as a percentage of the control group.

[5] = target: T1, SIRT1 (Homo sapiens, UniProt Q96EB6); assay: SIRT1 deacetylase activity in SH-SY5Y cell lysate; format: cell-based; details: for activity at 5 µM: 5 μM pretreatment 3 h, then 50 μM 6-OHDA 24 h, relative to control
T1 construct: endogenous in cells; host or cells: SH-SY5Y
T1 sequence (Q96EB6 1-747): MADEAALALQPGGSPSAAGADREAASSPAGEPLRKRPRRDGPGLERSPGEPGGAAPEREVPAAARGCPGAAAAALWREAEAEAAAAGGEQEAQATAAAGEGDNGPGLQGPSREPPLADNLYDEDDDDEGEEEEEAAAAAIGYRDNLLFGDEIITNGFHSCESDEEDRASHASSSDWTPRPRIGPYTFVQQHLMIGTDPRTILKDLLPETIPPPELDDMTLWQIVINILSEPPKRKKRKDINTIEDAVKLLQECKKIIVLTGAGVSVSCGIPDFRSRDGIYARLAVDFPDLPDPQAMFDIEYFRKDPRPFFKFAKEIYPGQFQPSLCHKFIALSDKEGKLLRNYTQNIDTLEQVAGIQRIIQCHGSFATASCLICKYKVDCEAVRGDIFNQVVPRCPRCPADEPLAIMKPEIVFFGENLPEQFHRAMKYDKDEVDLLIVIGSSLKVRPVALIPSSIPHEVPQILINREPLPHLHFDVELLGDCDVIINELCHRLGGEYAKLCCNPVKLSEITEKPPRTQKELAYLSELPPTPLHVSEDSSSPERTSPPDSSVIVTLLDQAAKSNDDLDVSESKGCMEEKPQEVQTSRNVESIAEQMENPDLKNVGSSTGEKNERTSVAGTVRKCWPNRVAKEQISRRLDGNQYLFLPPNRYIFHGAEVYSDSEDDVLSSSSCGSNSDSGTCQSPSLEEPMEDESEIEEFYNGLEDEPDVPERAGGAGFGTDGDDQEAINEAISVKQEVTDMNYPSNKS
Procedure: SH-SY5Y neuronal cells at 1.0 × 10^5 cells/mL were seeded into 6-well plates for 24 h. Then, the cells were pretreated with 5 μM 1,2,3-triazole-based sulfonamide derivatives for 3 h before neurotoxicity was induced with 50 μM 6-OHDA for another 24 h. The cell culture medium was rinsed off with cold 1X PBS. The cells were incubated at 4 °C with 1X RIPA buffer containing a protease inhibitor for 20 min before being harvested using a cell scraper, followed by centrifugation at 12,000 rpm for 20 min. Protein concentrations were measured using the Bradford protein assay, and SIRT1 activity in the cells was determined following the manufacturer’s instructions. The increase in SIRT1 enzyme activity was measured by fluorescence intensity at an excitation wavelength of 340 nm and an emission wavelength of 445 nm. SIRT1 enzyme activity was statistically analyzed as a percentage relative to the control group.

[6] = Cytotoxicity of 6-OHDA against SH-SY5Y cells, MTT assay; format: cell-based; details: human, SH-SY5Y neuronal cells, relative to control, read-out: cell viability; for viability at 24 h: 6-OHDA
Procedure: as §1

| Structure (SMILES) | IC50 [1] [µM] | cell viability of 6-OHDA-induced cells ([2]; pretreatment 1 μM 3 h) [%] | cell viability of 6-OHDA-induced cells ([2]; pretreatment 5 μM 3 h) [%] | activity at 5 µM [3] [%] | LDH leakage (LDH activity) [4] [%] | activity at 5 µM [5] [%] | also measured |
| --- | --- | --- | --- | --- | --- | --- | --- |
| O=S(=O)(NCCc1ccccc1)c1ccc(-n2cc(-c3ccccc3)nn2)cc1 [1a] | 103 ± 1.31 |  |  |  |  |  |  |
| O=S(=O)(c1ccc(-n2cc(COc3ccccc3)nn2)cc1)N1CCc2ccccc2C1 [1b] | 59 ± 3.69 |  |  |  |  |  |  |
| O=c1ccc2ccc(OCc3cn(-c4cccc(S(=O)(=O)N5CCc6ccccc6C5)c4)nn3)cc2o1 [1c] | 14.4 ± 0.34 |  |  |  |  |  |  |
| Cc1ccc(OCc2cn(-c3ccc(S(=O)(=O)NCCc4ccccc4)cc3)nn2)cc1 [2a] | 89.4 ± 2.95 | 90.11 ± 5.567 | 89.25 ± 3.236 | 102 ± 4.74 | 109.8 ± 3.826 | 91.9 ± 1.45 |  |
| Cc1ccc(OCc2cn(-c3ccc(S(=O)(=O)N4CCc5ccccc5C4)cc3)nn2)cc1 [2b] | 70.4 ± 6.8 |  |  |  |  |  |  |
| O=c1cc(OCc2cn(-c3cccc(S(=O)(=O)N4CCc5ccccc5C4)c3)nn2)c2ccccc2o1 [2c] | > 97.2 |  |  |  |  |  |  |
| O=Cc1ccc(OCc2cn(-c3ccc(S(=O)(=O)NCCc4ccccc4)cc3)nn2)cc1 [3a] | > 108 | 85.36 ± 4.615 | 87.69 ± 4.276 | 103 ± 4.94 | 112.6 ± 2.585 | 92.5 ± 1.98 |  |
| O=Cc1ccc(OCc2cn(-c3ccc(S(=O)(=O)N4CCc5ccccc5C4)cc3)nn2)cc1 [3b] | > 105 | 89.37 ± 4.597 | 90.41 ± 7.193 | 103 ± 5.8 | 115.6 ± 2.926 | 94.3 ± 3.28 |  |
| COc1cc2c(cc1OC)CN(S(=O)(=O)c1cccc(-n3cc(COc4ccc5ccc(=O)oc5c4)nn3)c1)CC2 [3c] | > 87 |  |  |  |  |  |  |
| O=[N+]([O-])c1ccc(OCc2cn(-c3ccc(S(=O)(=O)NCCc4ccccc4)cc3)nn2)cc1 [4a] | 80.4 ± 3.79 | 88.68 ± 3.959 | 85.48 ± 4.470 | 103 ± 5.15 | 113.3 ± 6.585 | 92.9 ± 3.19 |  |
| Cc1ccccc1OCc1cn(-c2ccc(S(=O)(=O)N3CCc4ccccc4C3)cc2)nn1 [4b] | 19 ± 0.89 | 88.69 ± 4.465 | 84.03 ± 1.563 | 102 ± 5.64 | 113.5 ± 2.954 | 91.06 ± 0.589 |  |
| COc1cc2c(cc1OC)CN(S(=O)(=O)c1cccc(-n3cc(COc4cc(=O)oc5ccccc45)nn3)c1)CC2 [4c] | > 87 |  |  |  |  |  |  |
| Cc1ccccc1OCc1cn(-c2ccc(S(=O)(=O)NCCc3ccccc3)cc2)nn1 [5a] | > 111 | 91.89 ± 9.100 | 90.88 ± 6.158 | 104 ± 4.42 | 116.0 ± 2.698 | 93.7 ± 2.54 |  |
| CC(=O)c1ccccc1OCc1cn(-c2ccc(S(=O)(=O)N3CCc4ccccc4C3)cc2)nn1 [5b] | 15.4 ± 1.1 |  |  |  |  |  |  |
| NCCc1cc(O)c(O)cc1O [6-OHDA, 6-hydroxydopamine] |  |  |  |  |  |  | viability at 24 h, 25 μM ([6]; 6-OHDA 25 μM (first of five concentrations 25–125 μM)): 90 ± 2.81%; viability at 24 h, 125 μM ([6]; 6-OHDA 125 μM (fifth of five concentrations 25–125 μM)): 54.4 ± 3.06%; viability at 24 h ([6]; fourth of five concentrations 25–125 μM): 56.2 ± 2.37%; viability at 24 h ([6]; second of five concentrations 25–125 μM): 78.5 ± 2.73%; viability at 24 h ([6]; third of five concentrations 25–125 μM): 61.6 ± 2.44%; activity at 50 µM ([3]; 50 μM 6-OHDA alone, 24 h): 119 ± 4.75%; LDH activity ([4]; 50 μM 6-OHDA alone, 24 h): 132.4 ± 5.089%; activity at 50 µM ([5]; 24 h, read-out: SIRT1 activity): 78.8 ± 3.74% |
| O=c1ccc2ccc(OCc3cn(-c4ccc(S(=O)(=O)NCCc5ccccc5)cc4)nn3)cc2o1 [6a] | 55.3 ± 1.45 |  |  |  |  |  |  |
| O=c1cc(OCc2cn(-c3ccc(S(=O)(=O)N4CCc5ccccc5C4)cc3)nn2)c2ccccc2o1 [6b] | > 97.2 |  |  |  |  |  |  |
| O=c1cc(OCc2cn(-c3ccc(S(=O)(=O)NCCc4ccccc4)cc3)nn2)c2ccccc2o1 [7a] | > 99.5 |  |  |  |  |  |  |
| COc1ccc(CCNS(=O)(=O)c2ccc(-n3cc(-c4ccccc4)nn3)cc2)cc1OC [8a] | 78.8 ± 8.11 |  |  |  |  |  |  |
| COc1cccc2c1C(=O)c1c(O)c3c(c(O)c1C2=O)C[C@@](O)(C(=O)CO)C[C@@H]3O[C@H]1C[C@H](N)[C@H](O)[C@H](C)O1 [Doxorubicin, reference compound] | 2.57 ± 0.36 |  |  |  |  |  |  |
| Oc1ccc(/C=C/c2cc(O)cc(O)c2)cc1 [Resveratrol, reference compound] |  | 88.04 ± 6.146 | 92.06 ± 9.069 | 101 ± 5.5 | 115.6 ± 2.723 | 92.6 ± 1.06 | cell viability of 6-OHDA-induced cells ([2]; pretreatment 0.1 μM (first of four concentrations 0.1–10 μM) 3 h): 90.01 ± 4.738%; cell viability of 6-OHDA-induced cells ([2]; pretreatment 10 μM (last of four concentrations 0.1–10 μM) 3 h): 90.47 ± 9.763% |
